Source: EP0394122A2, “Use of tetracyclines to manufacture a medicament for the treatment and prevention of AIDS” (priority 1989, dated 1990)

Columns and labels:
Assay type in all cases: cell-based
virus HIV (LAV-1-BRU) = assay: Protection against the cytopathogenic effect of HIV in infected CEM clone 13 cells (MTT viability)
Protocol: Le test est réalisé sur la lignée lymphoblastoïde CEM clone 13. Dans une microplaque de 96 puits on dépose 25 µl/puits d'une solution de produit à tester ou de tampon phosphate isotonique (TPI) dans le cas des contrôles. Les produits sont étudiés à différentes concentrations (souvent 8), à raison de 4 puits par concentration. On ajoute alors 125 µl d'une suspension de cellules CEM dans le milieu RPMI contenant 10 % de sérum de veau foetal, 40 U/ml de pénicilline, 40 µg/ml de streptomycine et 5 µg/ml de polybrène (3500 cellules par puits) et les microplaques sont incubées une heure à 37°C, sous une atmosphère contenant 5 % de gaz carbonique. Pour chaque concentration, l'essai est partagé en 2 parties : une partie sur cellules infectées, pour la détermination de l'activité antivirale et l'autre partie sur cellules non infectées, pour déterminer la cytotoxicité des produits. On infecte alors la première série avec HIV (100 µl par puit d'une suspension de virus LAV-1-BRU contenant 200-300 TCID50) tandis que l'autre série reçoit 100 µl de milieu RPMI tel que défini précédemment. Au bout de 7 jours d'incubation, 175 µl de surnageant sont prélevés et rejetés. La viabilité cellulaire est déterminée selon une modification de la technique décrite par R. Pauwels et coll., J. Virol. Meth., 20, 309-321 (1988).
Les puits, contenant encore les cellules (infectées ou non infectées), reçoivent 10 µl d'une solution de MTT (méthylthiazoletétrazolium) à 5 mg/ml dans du tampon phosphate isotonique. Pendant une période d'incubation de 4 heures, le MTT est converti en un sel de formazan (bleu) à l'intérieur des cellules vivantes et proportionnellement à leur nombre, alors que rien n'apparaît dans les puits ne contenant plus que des cellules mortes. On ajoute alors 120 µl d'isopropanol (contenant 0,04 mole/l d'acide chlorhydrique) et les microplaques sont agitées jusqu'à la solubilisation du bleu de formazan. L'absorption à 540 nm est lue avec un lecteur automatique de réactions ELISA en microplaques.
Pour les essais de plus longue durée, on procède comme décrit précédemment jusqu'au jour 7. A ce moment, 100 µl de cellules sont prélevés pour mesurer la proportion de cellules vivantes et le restant est remis en culture avec du milieu frais contenant les produits aux mêmes concentrations. Cette opération est répétée tous les 4 jours.

[1] = tested on: virus HIV (souche LAV-BRU); assay: Inhibition of the cytopathogenic effect of HIV in infected human lymphocyte culture (MTT viability); conditions: 21 days after infection, human lymphocytes
Protocol: (§1) La source des leucocytes humains est un stock congelé en N₂ liquide (100 x 10⁶ cellules/ampoule) de leucocytes obtenus sur cytaphérèse d'individus (donneurs) sains. Au moment de l'essai, les cellules sont décongelées, mises en suspension dans 80 % de sérum de veau foetal (SVF) et 20 % de diméthylsulfoxyde et centrifugées à 1000 rpm (10 minutes). Le culot est mis en suspension dans un milieu RPMI [contenant 10 % Lymphocult (Interleukine 2 en provenance de Biotest Diagnostic), 10 % de SVF, pénicilline et streptomycine, respectivement 40 U/ml et 40 µg/ml], à raison de 1 x 10⁶ cellules/ml. Habituellement, on utilise un flacon de culture cellulaire contenant 40 à 60 ml de cette suspension cellulaire. Les cellules sont incubées 4 jours en présence de phytohémagglutinine PHA (0,1 % DIFCO), à 37°C sous une atmosphère contenant 95 % d'air et 5 % de gaz carbonioue. Les cellules sont alors centrifugées, lavées une fois dans du milieu frais (ci-dessus) et remises en suspension dans le même milieu à 1 x 10⁶ cellules/ml [(RPMI 10 % de SVF, 10 % de Lymphocult-antibiotiques ci-dessus) mais contenant 10 U/ml d'anticorps anti-interferon (IFN α) 5 µg/ml de prolybrène.
(§2) 200 µl de cette suspension cellulaire (200.000 cellules) sont déposés dans des puits d'une microplaque de cultures (à 96 puits). A chaque puits, on ajoute 25 µl du produit à tester [dilué 10 fois dans du tampon phosphate isotonique (TPI)] ou 25 µl du solvant TPI pour le contrôle. L'essai est fait en 2 séries : sur cellules infectées (pour déterminer l'activité antivirale) et sur cellules non infectées pour déterminer l'activité antiproliférative (cytotoxicité). On infecte alors avec 25 µl du virus HIV (souche LAV-BRU), alors que l'autre série reçoit (par puits) 25 µl du milieu (ci-dessus). Les cultures sont incubées 7 jours à 37°C (95 % d'air, 5 % de CO₂). 200 µl de surnageant sont alors prélevés, rejetés ou utilisés pour la détermination de l'activité transcriptase inverse. Les cellules du fond (sous 50 µl) sont alors soit testées pour leur viabilité (test MTT), soit additionnées de 200 µl de milieu frais (ci-dessus). Dans ce dernier cas, l'incubation est prolongée pendant encore 7 jours (test au jour 14). L'opération peut être répétée une semaine après (test au jour 21).

lymphocytes humains = assay: Antiproliferative activity (cytotoxicity) on non-infected human lymphocytes (MTT viability); conditions: day 21
Protocol: as §1, §2

Molecule | Cellules infectées Densité optique (virus HIV (LAV-1-BRU); 0,01 µg/ml, JOUR 14) | Cellules infectées Densité optique (virus HIV (LAV-1-BRU); 0,01 µg/ml, JOUR 18) | Cellules infectées Densité optique (virus HIV (LAV-1-BRU); 0,01 µg/ml, day 7) | Cellules infectées Densité optique (virus HIV (LAV-1-BRU); 0,04 µg/ml, JOUR 14) | Cellules infectées Densité optique (virus HIV (LAV-1-BRU); 0,04 µg/ml, JOUR 18) | Cellules infectées Densité optique (virus HIV (LAV-1-BRU); 0,04 µg/ml, day 7) | Cellules infectées Densité optique (virus HIV (LAV-1-BRU); 0,12 µg/ml, JOUR 14) | Cellules infectées Densité optique (virus HIV (LAV-1-BRU); 0,12 µg/ml, JOUR 18) | Cellules infectées Densité optique (virus HIV (LAV-1-BRU); 0,12 µg/ml, day 7) | Cellules infectées Densité optique (virus HIV (LAV-1-BRU); 0,37 µg/ml, JOUR 14) | Cellules infectées Densité optique (virus HIV (LAV-1-BRU); 0,37 µg/ml, JOUR 18) | Cellules infectées Densité optique (virus HIV (LAV-1-BRU); 0,37 µg/ml, day 7) | Cellules infectées Densité optique (virus HIV (LAV-1-BRU); 10 µg/ml, JOUR 14) | Cellules infectées Densité optique (virus HIV (LAV-1-BRU); 10 µg/ml, JOUR 18) | Cellules infectées Densité optique (virus HIV (LAV-1-BRU); 10 µg/ml, day 7) | Cellules infectées Densité optique (virus HIV (LAV-1-BRU); 30 µg/ml, day 7) | Cellules infectées Densité optique (virus HIV (LAV-1-BRU); 1,11 µg/ml, JOUR 14) | Cellules infectées Densité optique (virus HIV (LAV-1-BRU); 1,11 µg/ml, JOUR 18) | Cellules infectées Densité optique (virus HIV (LAV-1-BRU); 1,11 µg/ml, day 7) | Cellules infectées Densité optique (virus HIV (LAV-1-BRU); 3,33 µg/ml, JOUR 14) | further results
CN(C)c1ccc(O)c2c1C[C@H]1C[C@H]3[C@H](N(C)C)C(O)=C(C(N)=O)C(=O)[C@@]3(O)C(O)=C1C2=O [Exemple 5, minocycline] | 0,300 | 0,250 | 0,660 | 0,450 | 0,250 | 0,720 | 0,620 | 0,450 | 0,890 | 1,250 | 1,000 | 1,210 | 0,100 | 0,100 | 0,450 | 0,320 | 1,250 | 0,950 | 1,510 | 0,400 | Cellules infectées Densité optique (virus HIV (LAV-1-BRU); 3,33 µg/ml, JOUR 18): 0,350; Cellules infectées Densité optique (virus HIV (LAV-1-BRU); 3,33 µg/ml, day 7): 1,340; Cellules infectées Densité optique ([1]; 0,04 µg/ml): 0,530; Cellules infectées Densité optique ([1]; 0,12 µg/ml): 0,435; Cellules infectées Densité optique ([1]; 0,37 µg/ml): 0,640; Cellules infectées Densité optique ([1]; 10 µg/ml): 0,540; Cellules infectées Densité optique ([1]; 1,11 µg/ml): 0,835; Cellules infectées Densité optique ([1]; 3,33 µg/ml): 0,750; Cellules non infectées Densité optique (lymphocytes humains; 0,04 µg/ml): 0,836; Cellules non infectées Densité optique (lymphocytes humains; 0,12 µg/ml): 0,775; Cellules non infectées Densité optique (lymphocytes humains; 0,37 µg/ml): 0,850; Cellules non infectées Densité optique (lymphocytes humains; 10 µg/ml): 0,833; Cellules non infectées Densité optique (lymphocytes humains; 1,11 µg/ml): 0,980; Cellules non infectées Densité optique (lymphocytes humains; 3,33 µg/ml): 0,900
doxycycline [Exemple 2] | 0,250 | 0,240 | 0,820 | 0,300 | 0,275 | 0,785 | 0,450 | 0,250 | 0,720 | 0,550 | 0,300 | 1,000 | 0,100 | 0,100 | 0,660 | 0,200 | 0,880 | 0,700 | 1,240 | 0,750 | Cellules infectées Densité optique (virus HIV (LAV-1-BRU); 3,33 µg/ml, JOUR 18): 0,750; Cellules infectées Densité optique (virus HIV (LAV-1-BRU); 3,33 µg/ml, day 7): 1,370; Cellules infectées Densité optique ([1]; 0,04 µg/ml): 0,530; Cellules infectées Densité optique ([1]; 0,12 µg/ml): 0,590; Cellules infectées Densité optique ([1]; 0,37 µg/ml): 0,550; Cellules infectées Densité optique ([1]; 10 µg/ml): 0,125; Cellules infectées Densité optique ([1]; 1,11 µg/ml): 0,773; Cellules non infectées Densité optique (lymphocytes humains; 0,04 µg/ml): 0,775; Cellules non infectées Densité optique (lymphocytes humains; 0,12 µg/ml): 0,765; Cellules non infectées Densité optique (lymphocytes humains; 0,37 µg/ml): 0,853; Cellules non infectées Densité optique (lymphocytes humains; 10 µg/ml): 0,103; Cellules non infectées Densité optique (lymphocytes humains; 1,11 µg/ml): 0,835; Cellules non infectées Densité optique (lymphocytes humains; 3,33 µg/ml): 0,670
